From patent EP3134439B1, “ANTI-PSYK ANTIBODY MOLECULES AND USE OF SAME FOR SYK-TARGETED THERAPY” (Millennium Pharmaceuticals, Inc., priority 2014, dated 2015)
Marks after values point to notes of the source that are not given here.

Experiments:
HBL-1 (ABC) = experiment: Anti-tumor activity, HBL-1 xenograft model; assay type: in vivo
VEGFR = VEGFR enzyme inhibition; assay type: biochemical
[1] = system: OCI-LY10 ABC DLBCL xenografts; experiment: Anti-tumor activity, OCI-LY10 xenograft model; assay type: in vivo, SCID mice
Source text: (§1) Mean tumor volumes (mm^3) ± SEM (N=8/group) are shown where treatment was initiated when mean tumor volume was approximately 200 mm3.

TMD8 (ABC) = experiment: Anti-tumor activity, TMD8 xenograft model; assay type: in vivo; conditions: 60 mg/kg; TGI calculated on Day 14
DLBCL cell lines = experiment: Inhibition of cellular proliferation; assay type: cell-based; conditions: subset of relevant models
[2] = system: PHTX-95L primary DLBCL tumor xenografts; experiment: Anti-tumor activity, PHTX-95L xenograft model; assay type: in vivo, SCID mice
Source text: as §1

[3] = system: OCI-LY19 GCB DLBCL xenografts; experiment: Anti-tumor activity, OCI-LY19 xenograft model; assay type: in vivo, SCID mice
Source text: as §1

WSU = experiment: Anti-tumor activity, WSU xenograft model; assay type: in vivo
[4] = 60 mg/kg orally once daily for 21 days
[5] = 120 mg/kg orally once daily for 21 days
[6] = daily oral administration of 60 mg/kg

For `Cn1cc(-c2nc(N[C@@H]3CCCC[C@@H]3N)c(F)c3c2C(=O)NC3)cn1` [Compound A, 6-((1R,2S)-2-Aminocyclohexylamino)-7-fluoro-4-(1-methyl-1H-pyrazol-4-yl)-1H-pyrrolo[3,4-c]pyridin-3(2H)-one], which TGI (HBL-1 (ABC); 60 mg/kg) is on record?
Its TGI is 32%.

What about the TGI (HBL-1 (ABC); 120 mg/kg) of the same molecule?
The TGI was 36%.

What about the IC50 (VEGFR) of the same molecule?
Its IC50 is 140 nM.

What about the TGI [1, 4] of the same molecule?
The TGI was 50%.

What about the TGI [1, 5] of the same molecule?
The TGI was 59%.

What about the TGI [1, 6] of the same molecule?
The TGI was 50%.

And the TGI (TMD8 (ABC))?
The TGI was 45%*.

What about the EC50 (DLBCL cell lines) of the same molecule?
The EC50 was 25 to 400 nM.

And the TGI [2, 4]?
Its TGI is 56%.

What about the TGI [2, 5] of the same molecule?
The TGI was 70%.

And the TGI ([2]; daily oral administration, 120 mg/kg)?
Its TGI is 70%.

And the TGI ([3]; 60 mg/kg orally once daily for 14 days, TGI calculated on Day 16)?
The TGI was 33%**.

What about the TGI [3, 6] of the same molecule?
Its TGI is 37%.

And the TGI (WSU; 60 mg/kg)?
Its TGI is 52%.

And the TGI (WSU; [6])?
Its TGI is “approximately 50%”.
